In the assay the test system is CD2F 1 male mice. Put plainly: 30-day survival of mice after a lethal dose of cobalt-60 radiation. The class given is in vivo. Here is the method:
Control groups were administered saline and polyethylene glycol 400 (the vehicle for the genistein) prior to irradiation. Genistein (Sigma Chemical Co., St. Louis, Mo.) was administered 400 mg/kg either as a single dose or multiple dosages of 100 mg/kg each at various times ranging from 1 hour to 4 days before radiation, after irradiation, or both before and after radiation.
In subsequent studies, using the procedures and mice of Example 1, a single subcutaneous dose of 100 or 400 mg/kg genistein was administered 24 hr before 9.5 Gy radiation.

These results are taken from patent US20020001565A1, “Radioprotective agents” (priority 2000, published 2002).

The structures appear in SMILES notation.

Consider `O=c1c(-c2ccc(O)cc2)coc2cc(O)cc(O)c12` [genistein, 5,7-dihydroxy-3-(4-hydroxyphenyl)-4H-1 benzopyran-4-one], for which the 30-day survival runs as follows: (100 mg/kg orally daily for 4 days before and 4 days after irradiation, 9.5 Gy) 50%; (genistein before and after irradiation, oral, 9.5 Gy cobalt-60, dose not given) 69%; (genistein only after irradiation, oral, 9.5 Gy cobalt-60, dose not given) 0%; (genistein only before radiation, oral, 9.5 Gy cobalt-60 at 0.6 Gy/min, dose not given) “Forty-four”; (multiple oral administration 100 mg/kg, 4 days before irradiation, 9.5 Gy) 0%; (multiple oral administration 100 mg/kg, after irradiation, 9.5 Gy) 0%. The radioprotection result reads like this: (single dose 400 mg/kg orally 1 hr before 9.5 Gy radiation) “did not confer any measurable radioprotection”; (single dose 400 mg/kg orally 24 hr before 9.5 Gy radiation) “did not confer any measurable radioprotection”. The 30-day survival rate reads like this: (single subcutaneous dose 100 mg/kg 24 hr before 9.5 Gy radiation) 69%; (single subcutaneous dose 400 mg/kg 24 hr before 9.5 Gy radiation) 81%.
